Measured values from PMC7894426, “Influence of verapamil on the pharmacokinetics of rotundic acid in rats and its potential mechanism” (Pharmaceutical Biology, 2021).
Read-outs that look alike come from different tables or passages of the source.

What was measured:
[1] = In vivo pharmacokinetic study of oral rotundic acid with or without verapamil pre-treatment; design: species or system Sprague–Dawley rats; conditions: rats, RA 10 mg/kg oral; for AUC(0-inf) / CL/F / Cmax / Vd/F / half-life / AUC(0-t) / Tmax: male, Sprague-Dawley, rat, plasma, po, 10 mg/kg; for AUC(0-t): read-out: AUC0–24
Experimental: Male Sprague–Dawley rats (180–220 g) were purchased from SiPeiFu (Beijing) Biotechnology Co., Ltd. (Beijing, China). Rats were housed in a breeding room at stable temperature (22 ± 3 °C), humidity (55 ± 10%), and under non-pathogenic conditions. All animals were placed under the above conditions and acclimatized to the facilities for one week, then fasted for 12 h with water ad libitum before the experiments. The protocols involving experimental animals were carried out by the guidelines of the Animal Ethical Committee of Tianjin Institute of Pharmaceutical Research (Tianjin, China).
To evaluate the influence of verapamil on the in vivo pharmacokinetics of RA, the male Sprague–Dawley rats were randomly divided into three groups (n = 6), including a control group and two pre-treatment groups. The pre-treatment groups received verapamil orally by gavage at a dose of 25 and 50 mg/kg (dissolved in 5% gum arabicin at a concentration of 5 and 10 mg/mL, respectively) separately for 15 min before the administration of RA at a dose of 10 mg/kg (dissolved in 5% gum arabicin at a concentration of 2 mg/mL). The dose of verapamil selected was equated to the human maximum recommended daily dose of 240–480 mg for a 60 kg person following allometric conversion (US Food and Drug Administration [2005]; Cao et al. [2007]). The control group received equal amounts of the vehicle (5% gum arabicin) before the oral administration of RA. Whole blood samples (200 µL) were collected from the orbital venous plexus at 0.0833, 0.25, 0.5, 1, 1.5, 2, 3, 4, 6, 8, 10 and 24 h after oral administration. All samples were transferred into heparinized tubes and then centrifuged for 5 min at 12,000 rpm and 4 °C immediately. The supernatants of separated plasma samples were harvested and stored at −20 °C until LC-MS/MS analysis.
RA was extracted from the sample using a simple protein precipitation method with a 3-fold volume of an organic solvent consisting of methanol-acetonitrile (1:2, v/v). Briefly, a 50 µL aliquot of plasma sample was thawed at room temperature and was then precipitated by 50 µL of methanol and 100 µL of acetonitrile containing IS (10 ng/mL). The sample was mixed uniformly for 1 min, and then centrifuged for 10 min at 12,000 rpm and 4 °C. Subsequently, 10 µL supernatants were injected into the LC-MS/MS system for analysis.
The separation and mass spectrometric analysis of the RA was achieved on a Waters ACQUITY^TM Ultra Performance LC system coupled with a Tandem Quadrupole (TQ) Detector equipped with an electrospray ionization (ESI) source. Chromatographic separation was performed at 40 °C with an ACQUITYUPLC BEH C8 column (1.7 µm, 2.1 × 50 mm, Waters Corp., USA). The mobile phase consisted of methanol-acetonitrile (50:50, v/v, mobile phase A), and 5 mM ammonium formate-methanol (90:10, v/v, mobile phase B). While the gradient elution procedure was employed for the separation of analytes at a flow rate of 0.3 mL/min. The optimized gradient elution program was as follows: 0 min 60% B, 3 min 10% B, 4 min 10% B, and 5 min 60% B. The injection volume was 10 µL at an autosampler temperature of 6 °C. The analytical run time for each sample was 5.0 min. The HPLC elution was injected into waste for the first 1.2 min, into the MS detector for the next 1 min, and back into waste for the remaining run time. RA and IS were monitored with the mass spectrometer by negative ESI source mode. The ionization source parameters were set as follows: 2.5 kV, 30 V, 120 °C, 350 °C, 50 L/h, and 650 L/h for capillary voltage, cone voltage, source temperature, desolvation temperature, cone gas, and desolvation gas, respectively. The optimal collision energy was operated at 30 V for RA and 20 V for IS. Argon was used as the collision gas. Samples were analyzed by multiple reaction monitoring (MRM) of the transitions of m/z 487.3 → 469.3 for RA and m/z 256.0 → 227.0 for IS, respectively. The dwell time was set at 0.2 s per transition. Data were acquired by MassLynx 4.1 software. […]

[2] = biological target: T1, CYP3A4 (Homo sapiens, UniProt P08684); experiment: Metabolic depletion of RA by rhCYP3A4; type: in vitro ADME
T1 construct: purchased Research Institute for Liver Disease (Shanghai) Co., Ltd
T1 sequence (P08684 whole entry): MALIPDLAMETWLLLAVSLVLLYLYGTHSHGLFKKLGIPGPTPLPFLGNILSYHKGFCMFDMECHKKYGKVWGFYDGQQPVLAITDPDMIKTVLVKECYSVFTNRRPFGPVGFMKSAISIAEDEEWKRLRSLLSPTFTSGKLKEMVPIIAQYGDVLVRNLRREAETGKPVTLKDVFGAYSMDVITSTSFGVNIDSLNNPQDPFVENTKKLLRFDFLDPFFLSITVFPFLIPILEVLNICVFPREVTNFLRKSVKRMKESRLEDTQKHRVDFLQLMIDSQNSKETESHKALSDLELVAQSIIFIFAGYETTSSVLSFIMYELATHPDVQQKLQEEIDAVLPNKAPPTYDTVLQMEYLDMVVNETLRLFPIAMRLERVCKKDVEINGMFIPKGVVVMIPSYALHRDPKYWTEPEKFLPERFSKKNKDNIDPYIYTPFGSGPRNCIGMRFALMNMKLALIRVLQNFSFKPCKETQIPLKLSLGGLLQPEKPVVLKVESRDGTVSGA
Experimental: The metabolic stability of RA was evaluated against five rhCYPs (1A2, 2C8, 2C9, 2D6 and 3A4). Incubation was taken place in 0.1 M sodium phosphate buffer (pH 7.4) containing 5 mM MgCl2, 1 mM NADPH, and 25 pM rhCYP enzyme protein at 37 °C in a total volume of 1 mL. After pre-incubated for 5 min, the reactions were started by the addition of RA methanol solution (final concentration of 2 µM). Aliquots of 50 µL incubation solution were collected from the reaction at 0, 5, 10, 20 and 30 min, and quenched with 50 µL ice-cold methanol (containing 0.5% formic acid) and 100 µL ice-cold acetonitrile containing IS (10 ng/mL). The heat-inactivated rhCYP3A4 were used as negative controls. All reactions were conducted in triplicate, followed by LC-MS/MS analysis. Results presented in percentage of drug remaining in incubation starting at 100% at time zero.

[3] = biological target: P-gp (Homo sapiens, UniProt P08183); experiment: Bidirectional transport across MDCKII-MDR1 cell monolayers (P-gp substrate assessment); conditions: dog, MDCK-MDR1, pH 7.4
Chain of P-gp (P08183 whole entry): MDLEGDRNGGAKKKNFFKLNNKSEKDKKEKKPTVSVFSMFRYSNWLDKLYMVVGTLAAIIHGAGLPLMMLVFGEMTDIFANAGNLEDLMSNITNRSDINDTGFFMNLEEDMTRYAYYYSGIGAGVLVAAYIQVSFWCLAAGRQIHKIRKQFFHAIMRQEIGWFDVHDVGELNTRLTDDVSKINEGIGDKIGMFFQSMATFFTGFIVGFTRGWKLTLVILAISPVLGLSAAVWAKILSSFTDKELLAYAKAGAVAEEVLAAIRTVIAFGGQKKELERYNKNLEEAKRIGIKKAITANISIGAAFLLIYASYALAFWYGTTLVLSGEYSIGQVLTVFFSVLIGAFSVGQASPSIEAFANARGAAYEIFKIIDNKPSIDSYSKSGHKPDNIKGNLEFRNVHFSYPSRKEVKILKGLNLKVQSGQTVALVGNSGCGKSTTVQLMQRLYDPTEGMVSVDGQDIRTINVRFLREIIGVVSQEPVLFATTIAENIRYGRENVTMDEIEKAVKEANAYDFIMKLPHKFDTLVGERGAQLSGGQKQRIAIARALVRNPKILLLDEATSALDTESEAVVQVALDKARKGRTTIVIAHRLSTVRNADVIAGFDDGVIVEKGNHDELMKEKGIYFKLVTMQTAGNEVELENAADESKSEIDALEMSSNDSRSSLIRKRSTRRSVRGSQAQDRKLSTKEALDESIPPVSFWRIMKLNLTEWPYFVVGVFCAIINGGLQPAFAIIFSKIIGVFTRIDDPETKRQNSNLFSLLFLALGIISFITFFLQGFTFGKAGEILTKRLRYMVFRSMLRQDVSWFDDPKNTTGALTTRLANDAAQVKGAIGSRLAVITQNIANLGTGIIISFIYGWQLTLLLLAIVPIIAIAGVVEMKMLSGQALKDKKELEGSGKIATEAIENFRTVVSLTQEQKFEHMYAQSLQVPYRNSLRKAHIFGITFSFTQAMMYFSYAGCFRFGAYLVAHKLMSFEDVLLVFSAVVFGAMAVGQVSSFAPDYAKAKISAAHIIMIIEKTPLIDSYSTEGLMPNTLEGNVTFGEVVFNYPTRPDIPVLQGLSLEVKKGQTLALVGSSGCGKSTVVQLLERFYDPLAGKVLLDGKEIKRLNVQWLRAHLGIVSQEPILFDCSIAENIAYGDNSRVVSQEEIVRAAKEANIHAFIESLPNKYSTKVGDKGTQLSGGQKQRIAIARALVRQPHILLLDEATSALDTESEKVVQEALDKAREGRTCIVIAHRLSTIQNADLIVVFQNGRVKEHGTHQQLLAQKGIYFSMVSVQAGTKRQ
Experimental: MDCKII-Mock and MDCKII-MDR1 cells were given as a gift by Fuji Biomedix Co., Ltd. (Japan) and cultured in DMEM supplemented with 10% FBS and 1% antibiotic (10,000 U/mL penicillin and 10 mg/mL streptomycin). Caco-2 cell line, the human epithelial cell used in this assay, was purchased from the Cell Bank of the Chinese Academy of Sciences (Shanghai, China) and maintained between 30 and 45 passages. It was cultured according to the previous report (Guo et al. [2018]; Xiang et al. [2020]). Briefly, the Caco-2 cells were cultured in DMEM supplemented with 10% FBS, 1% NEAA, and 1% antibiotic (10,000 U/mL penicillin and 10 mg/mL streptomycin). All cells were maintained in a 5% CO2 atmosphere and 90% relative humidity at 37 °C.
For transport studies, the MDCKII-Mock, MDCKII-MDR1, and Caco-2 cells were seeded at a density of 2 × 10^5 cells/mL on Costar Transwell inserts (1.12 cm^2 surface, polycarbonate, 12 mm diameter, 0.4 µm pore size). MDCKII-Mock and MDCKII-MDR1 cells were cultured for 5–7 days in medium, for the first four days, the medium was replaced freshly every two days, and then daily. The Caco-2 cells were cultured for 19–21 days in the medium. For the first 2 weeks, the medium was replaced freshly every two days, and then daily. […] The transepithelial electrical resistance (TEER) of the monolayer cells was measured by Millcell ERS-2 (Millipore, USA), and only the monolayer with TEER exceeding 150 Ω·m^2 (MDCKII-Mock and MDCKII-MDR1 cells) and 400 Ω·m^2 (Caco-2 cells) were used for the transport experiment. The membrane integrity and transport function of MDCKII-Mock, MDCKII-MDR1, and Caco-2 cell monolayers were further verified with Lucifer yellow and Rhodamine-123. The qualified monolayers were used for transport studies.
Before the transport studies, the media in both chambers of the transwell were replaced by warm (37 °C) Hank’s balanced salt solution (HBSS), and then the MDCKII-Mock, MDCKII-MDR1, and Caco-2 cell monolayers were incubated at 37 °C and 5% CO2 for 20 min. […] Our transport studies included absorptive direction transport from the apical (AP) side to the basolateral (BL) side and secretory direction transport from the BL side to the AP side. […] After administration, the transwell plate was placed in a thermostatic oscillator shaking at 60 rpm and 37 °C. At 10, 20, 40 and 60 min, respectively, 50 µL incubating sample aliquot was collected from the receiver chamber and immediately replaced by the same volume of fresh HBSS (37 °C). In addition, the membrane integrity of MDCKII-Mock, MDCKII-MDR1, and Caco-2 cell monolayers were evaluated with Lucifer yellow (30 µM) and TEER value, and the efflux activity of P-gp was validated using a typical P-gp substrate rhodamine-123 (10 µM).
The parameters Papp, RE, and NRE were calculated using the following equation: Papp=(ΔQ/Δt)×[1/(A×C0)]

[4] = Bidirectional transport across MDCKII-Mock cell monolayers; type: in vitro ADME, canine; conditions: dog, MDCK, MDCKII-Mock, 20 min; for efflux ratio at 20 min: read-out: RE (efflux ratio)
Experimental: The qualified monolayers were used for transport studies. […] Each experiment was carried out in triplicate.

[5] = pre-treatment of verapamil 25 mg/kg
[6] = pre-treatment of verapamil 50 mg/kg
[7] = pH 7.4, with verapamil 50 µM, + 50 µM verapamil

AUC(0-inf) ([1]; control (vehicle)): 432 ± 64.2 ng·h/mL | CL/F ([1]; control (vehicle)): 393 mL/min/kg | Cmax ([1]; control (vehicle)): 108 ± 10.5 ng/mL | Vd/F ([1]; control (vehicle)): 64.6 ± 22.6 L/kg | half-life ([1]; control (vehicle)): ~2 h | AUC(0-t) ([1]; control (vehicle)): 405 ± 68.2 ng·h/mL | Tmax ([1]; control (vehicle), read-out: Tmax): 0.292 ± 0.228 h | AUC(0-inf) [1, 5]: 539 ± 53.6 ng·h/mL | CL/F [1, 5]: 312 mL/min/kg | Cmax [1, 5]: 117 ± 14.9 ng/mL | Vd/F [1, 5]: 66.7 ± 21.1 L/kg | half-life [1, 5]: 2.44 ± 0.572 h | AUC(0-t) [1, 5]: 496 ± 63 ng·h/mL | Tmax ([1]; pre-treatment of verapamil 25 mg/kg, read-out: Tmax): 0.625 ± 0.306 h | AUC(0-inf) [1, 6]: 836 ± 116 ng·h/mL | CL/F [1, 6]: 203 mL/min/kg | Cmax [1, 6]: 219 ± 36.8 ng/mL | Vd/F [1, 6]: 41.3 ± 12.3 L/kg | half-life [1, 6]: 2.31 ± 0.404 h | AUC(0-t) [1, 6]: 782 ± 115 ng·h/mL | Tmax ([1]; pre-treatment of verapamil 50 mg/kg, read-out: Tmax): 1.17 ± 0.516 h | Tmax ([1]; without verapamil, read-out: time to peak plasma concentration (converted)): ~0.25 h | t1/2 ([1]; control (vehicle)): 1.85 ± 0.390 h | degradation in negative control ([2]; heat-inactivated rhCYP3A4, RA 2 µM): No obvious degradation | RA converted ([2]; rhCYP3A4 25 pM, RA 2 µM, 30 min): 88.2% | Papp A→B at 20 min [3]: 4.22 ± 0.611 ×10⁻⁶ cm/s | Papp B→A at 20 min [3]: 12.1 ± 1.55 ×10⁻⁶ cm/s | efflux ratio at 20 min [3]: 2.87 | Papp A→B at 20 min [4, 7]: 6.52 ± 0.864 ×10⁻⁶ cm/s | Papp B→A at 20 min [4, 7]: 6.23 ± 0.895 ×10⁻⁶ cm/s | efflux ratio at 20 min [4, 7]: 0.955 | Papp A→B at 20 min ([4]; pH 7.4, without verapamil): 6.07 ± 0.886 ×10⁻⁶ cm/s | Papp B→A at 20 min ([4]; pH 7.4, without verapamil): 6.72 ± 2.03 ×10⁻⁶ cm/s | efflux ratio at 20 min ([4]; pH 7.4, without verapamil): 1.11
SMILES: C[C@@H]1CC[C@]2(C(=O)O)CC[C@]3(C)C(=CC[C@@H]4[C@@]5(C)CC[C@H](O)[C@@](C)(CO)[C@@H]5CC[C@]43C)[C@@H]2[C@]1(C)O [RA, Rotundic acid]
